The values below come from patent US20170065564A1, “BIS-CYCLIC GUANIDINE COMPOUND COMPOSITIONS, METHODS OF USE AND TREATMENT THEREOF” (University of South Florida, priority 2014, published 2017).

One data set has as its system P. aeruginosa. Briefly: MIC reanalysis in the presence of the efflux inhibitor reserpine. The format is cell-based, Pseudomonas aeruginosa. The note with it: P. aeruginosa isolate 1420; 100 μM of reserpine or 2 μM of compound 1 individually. From the text: Given the minor variations observed in MIC for three of the Gram-negative organisms, and that these particular bacteria are renowned for efflux detoxification of antibacterial agents, we hypothesized that the differences observed likely relate to variation in efflux pump activity between strains. […] The effects observed appear to be universal, regardless of strain or compound tested. […] It should be noted that the data presented herein represents a worst-case scenario. […] Similar data was returned for all front runner agents, against all 10 isolates of the three Gram-negative organisms (data not shown). These findings support the hypothesis that inherent efflux mechanisms of certain Gram-negative organisms result in MIC variations for the lead bis-cyclic guanidines between clinical isolates.

In the next data set the test system is K. pneumoniae. Kind of data set: Resistance serial passage assay. It is filed as cell-based, Klebsiella pneumoniae. The note with it: 8 passages, concentration doubled each day. The procedure: (§1) ESKAPE pathogens were grown overnight in liquid media at 37° C. These cultures were then diluted 1:100 in fresh media, and seeded into a 96-well plate. Lead bis-cyclic guanidines or control agents were added to respective wells at half MIC concentrations. Plates were then incubated for 24 hours at 37° C., with bacteria removed from these cultures on the following day, to inoculate fresh media (1:100 dilution) containing compounds at a 2-fold higher concentrations. These were then grown overnight, and the procedure repeated for a total of eight days. […] Each experiment was performed in triplicate, yielding identical results.

Another data set concerns A. baumannii. Kind of data set: Resistance serial passage assay. It is filed as cell-based, Acinetobacter baumannii. Particulars: 8 passages, concentration doubled each day. The procedure:
as §1

For a further data set, the system named is E. faecium. Kind of data set: Resistance serial passage assay. It is filed as cell-based, Enterococcus faecium. The note with it: 8 passages, concentration doubled each day. The procedure:
as §1

The subject of data set [1] is Staphylococcus aureus (USA300 strain FPR3757). Kind of data set: Murine model of lethal peritonitis. The format is in vivo, mice. The note with it: I.V. On the procedure: Using MRSA as a representative ESKAPE organism, we infected mice with 1×10^8 bacterial cells in 5% mucin via intraperitoneal injection. At 1 h post-infection, mice were then I.V. injected with either vancomycin (positive control), or I.M. with our front runner compounds.
Six mice per group were injected with 1×10^8 CFU ml^−1 of Staphylococcus aureus (USA300 strain FPR3757) in PBS containing 5% mucin. […] Mice were monitored twice daily for five days to assess mortality. The clinical endpoint of this study was when the mice reached a pre-moribund state. Characteristics of pre-moribund state include: hunched posture, rapid, shallow and/or labored breathing, ruffled fur, lethargy, failure to respond to stimuli, soiled anogenital area, paralysis, paresis, head tilt, circling, vocalizations, non-purposeful movements and/or were unable to eat or drink. Those mice reaching this state prior to the completion of the 5 day infection period were euthanized. The number of mice surviving between control and treatment groups was compared and analyzed for statistical significance using a log rank test.

For the next data set, the system named is S. aureus. Kind of data set: Resistance serial passage assay. The format is cell-based, Staphylococcus aureus. Particulars: 8 passages, concentration doubled each day. The procedure: as §1
Data set [2] concerns human red blood cells (hRBCs).
Protocol: A hemolysis assay was performed using whole human blood (Bioreclamation), as described previously,^47 with the following modifications. Human red blood cells (hRBCs) were resuspended 20% v/v in 1× HA buffer (4.25 ml 10% NaCl; 1 ml CaCl2 in 50 ml sterile water), and lead agents were added at a concentration of 10 μM, to a final volume of 100 μl. Cells were incubated for 15 minutes at 37° C. before being centrifuged at 5,500 g for 1 minute to pellet non-lysed hRBCs. The supernatant was removed, added to a 96-well microtiter plate and the OD543 read using a Biotek synergy2 plate reader. The negative control was vehicle only (DMF), and the positive control was 1.0% triton X-100.

Turning to `COC(=O)[C@H]1[C@H]2C[C@@H]3c4[nH]c5cc(OC)ccc5c4CCN3C[C@H]2C[C@@H](OC(=O)c2cc(OC)c(OC)c(OC)c2)[C@@H]1OC` [reserpine, reference compound], in the data set with P. aeruginosa, the “effect on growth, agent alone” value was “no effect”.

Take `CO[C@H]1/C=C/O[C@@]2(C)Oc3c(C)c(O)c4c(O)c(c(/C=N/N5CCN(C)CC5)c(O)c4c3C2=O)NC(=O)/C(C)=C\C=C\[C@H](C)[C@H](O)[C@@H](C)[C@@H](O)[C@@H](C)[C@H](OC(C)=O)[C@@H]1C` [rifampin, reference compound]: the “increase in MIC after serial passage” value with K. pneumoniae was 128 fold.

Take `CN(C)[C@@H]1C(O)=C(C(N)=O)C(=O)[C@@]2(O)C(O)=C3C(=O)c4c(O)cccc4[C@@](C)(O)[C@H]3C[C@@H]12` [tetracycline, reference compound]: the “increase in MIC after serial passage” value in the data set with A. baumannii and in the data set on E. faecium was 128 fold each time.

With `CN[C@H](CC(C)C)C(=O)N[C@H]1C(=O)N[C@@H](CC(N)=O)C(=O)N[C@H]2C(=O)N[C@H]3C(=O)N[C@H](C(=O)N[C@H](C(=O)O)c4cc(O)cc(O)c4-c4cc3ccc4O)[C@H](O)c3ccc(c(Cl)c3)Oc3cc2cc(c3O[C@@H]2O[C@H](CO)[C@@H](O)[C@H](O)[C@H]2O[C@H]2C[C@](C)(N)[C@H](O)[C@H](C)O2)Oc2ccc(cc2Cl)[C@H]1O` [vancomycin, reference compound], the protectivity was found to be 50% in data set [1] (5× MIC, 1 h post-infection (not significant)) and 100% in data set [1] (10× MIC, 1 h post-infection). In addition, the “increase in MIC after serial passage” value in the data set with S. aureus came out at 128 fold. In data set [2], Triton-X100 displayed a hemolysis of 100%.
